Measurements as given in patent US20040009904A1, “APL immunoreactive peptides, conjugates thereof and methods of treatment for aPL antibody-mediated pathologies” (priority 1995, published 2004).
Numbered stars: 1 amine (or outer) side, 2 acyl side, 3 side chain; on linkers, the order of the positions; unused ones are H or OH. Bridge positions count the residues as written; N and C are the ends. Square brackets hold non-standard residues; d marks the D form. Peptide text beside a SMILES is read from it. Abu(4-yl) = O=C([C@H](CC[*:3])N[*:1])[*:2]; hCys = N[C@@H](CCS)C(=O)O

Key:
ACA = experiment: Structure Activity Relationship of the Crossreactive ACA Epitope (relative activity); format: binding, human; settings: LJP 688 = 100
Excerpt: Peptide 6641/3G3 (LJP 688) was subjected to a number of analyses. The analyses included truncation at both the N-terminus and the C-terminus, disulfide substitution, substitution of alanine and glycine for amino acids in positions 2 through 8, substitution of branched aliphatic amino acids in positions 2, 4, 5 and 8, substitution of amino acids affecting conformation of the peptide, including substitution of α-methyl amino acids, substitution of basic amino acids in position 7, substitution of D-amino acids in positions 2 through 9, and the substitution of N-α-methyl amino acids in positions 1 through 9.

ACA-6501 = experiment: Competitive binding peptide ACA ELISA, cardiolipin/β2-GPI-coated plates; set-up: species or system human; settings: for with ACA 6501 150 ug/mL: Optimization of Peptide 3G3, inf = no 50% inhibition; for IC50 Values, ACA-6501: cyclic thioether analogs; for Percent Inhibition of AffACA by Peptide Monomers, 6501: peptide 1 mg/mL, affinity purified antibody
Protocol: (§1) A variation of this assay uses microtitration plates coated with human β2-glycoprotein I/cardiolipin (β2-GPI/CL) instead of tetravalent peptide and tests the ability of monomeric peptides to block the binding of aPL antibody to the epitope(s) on β2-GPI/CL. In this assay, IgG-depleted human serum at an optimized concentration is used as a source of β2-GPI. The monomeric peptides at several concentrations are incubated with an optimized concentration of aPL antibody in a manner analogous to the assay which employs tetravalent peptide as a plate substrate. Following the incubation of aPL/peptide in (β2-GPI/CL) plates, antibody binding and the peptide concentration required for 50% inhibition is determined at half-maximal absorbance as in the tetravalent assay.
(§2) Peptide sequences for all five peptides immediately follow the table. All were tested using the competitive binding peptide ACA ELISA using CL/β2-GPI plates as described herein.
(§3) (B) Immulon I® 96-well, flat-bottom, polystyrene microtitration plates (Dynatech Laboratories, Inc., Chantilly, Va.) were coated with 30 μL/well of cardiolipin (CL, 50 μg; Sigma Chemical Co., St. Louis, Mo.) in ethanol. Two control wells received 30 μL ethanol only. After overnight evaporation at 4° C., each well was blocked with 200 μL of 5% (w/v) fish gelatin in PBS for 2 hours at RT.
During this incubation, variable amounts of each of six peptides were mixed with 22 μL ACA-6501 serum diluted with 3% fish gelatin in 1:1 TBS/PBS (final dilution of 1:400) in a final volume of 220 μL using Eppendorf microcentrifuge tubes. Specifically, in tube #1 were mixed 181.3 μL of 3% fish gelatin in TBS-PBS, 16.7 μL of peptide stock solution plus 22 μL of ACA-6501 serum diluted 40 times in 3% fish gelatin/TBS-PBS. Stock solutions ranged from 450-800 μg/mL for peptides #951 (diserine non-cyclized negative control), #952 (a lot of LJP 690), and thioethers CCTE-3G3, CHTE-3G3, HCTE-3G3 and HHTE-3G3. To tube #2 the following were added: 148 μL fish gelatin/TBS-PBS, […] of peptide stock solution, plus 22 μL of 40 times diluted ACA-6501 serum. Tube #3 contained 48 μL fish gelatin/TBS-PBS, […] of peptide stock solution, plus 22 μL of 40 times diluted ACA-6501 serum. The control tube #4 received 396 μL fish gelatin/TBS-PBS and 44 μL of 40 times diluted ACA-6501 serum (no peptide). Each of the tubes incubated for approximately 1 hour at RT.
(§4) The CL/β2-GPI microtitration plate was washed 5 times with TBS and 100 μL aliquots in duplicate from Eppendorf tubes #1, 2, 3, and 4 containing the antibody-peptide (or no peptide mixtures) were added to the wells. A volume of 100 μL from tube #4 was added to the duplicate control wells containing no cardiolipin. The microtitration plate was incubated for 1 hour at RT with agitation at 40 rpm in an orbital shaker (American Scientific, Rotator V), washed 5 times with TBS and then 100 μL of 1:1000 goat anti-human IgG alkaline phosphatase conjugate (Zymed, Cat No. 62-8422) in 0.5% (w/v) BSA-TBS was added. Following incubation for 1 hour at RT, the microtitration plate was again washed 5 times with TBS and the colorimetric enzyme detection developed by adding 100 μL of PMPP solution (7.8 g phenolphthalein monophosphate plus 69.5 g of 2-amino-2-methyl-1-propanol in 100 mL water stock solution diluted 1:26 with water). After 21 minutes, the reaction was stopped by adding 50 μL of 0.2 M Na2HPO4 (Mallinckrodt) to each well. Absorbance at 550 nm was read in a microplate reader (Bio-Tek Instruments, Model EL 311). The amount of peptide that inhibited ACA-6501 binding by 50%, the IC50, was calculated from the graph at the intersection of half-maximal absorbance with amount of peptide added.

ACA-6701 = experiment: as above; set-up: species or system human; settings: for IC50 Values, ACA-6701: cyclic thioether analogs; for Percent Inhibition of AffACA by Peptide Monomers, 6701: peptide 1 mg/mL, affinity purified antibody
Protocol: as §1, §2, §3, §4

ACA antibodies = experiment: Competitive binding peptide ACA ELISA, cardiolipin/β2-GPI-coated plates, panel of ACA antibodies (average); set-up: species or system human; settings: peptide 1 mg/mL, average over nine antibodies
Protocol: as §1, §2
As noted in Section I above, one synthetic peptide, 6641/3G3 was tested against several high titer ACA antisera. This peptide appeared to be crossreactive with the vast majority of ACA antisera tested as illustrated in FIG. 14.
as §3, §4

ACA-6644 = experiment: Competitive binding peptide ACA ELISA, cardiolipin/β2-GPI-coated plates; set-up: species or system human; settings: peptide 1 mg/mL, affinity purified antibody
Protocol: as §1, §2, §3, §4

ACA-7004 = experiment: as above; set-up: species or system human; settings: peptide 1 mg/mL, affinity purified antibody
Protocol: as §1, §2, §3, §4

ACA-6903 = experiment: as above; set-up: species or system human; settings: peptide 1 mg/mL, affinity purified antibody
Protocol: as §1, §2, §3, §4

ACA-6638 = experiment: as above; set-up: species or system human; settings: peptide 1 mg/mL, affinity purified antibody
Protocol: as §1, §2, §3, §4

ACA-7005 = experiment: as above; set-up: species or system human; settings: peptide 1 mg/mL, affinity purified antibody
Protocol: as §1, §2, §3, §4

ACA-6626 = experiment: as above; set-up: species or system human; settings: peptide 1 mg/mL, affinity purified antibody
Protocol: as §1, §2, §3, §4

ACA-6641 = experiment: as above; set-up: species or system human; settings: peptide 1 mg/mL, affinity purified antibody
Protocol: as §1, §2, §3, §4

Molecule | Relative Activity (ACA) | with ACA 6501 150 ug/mL (ACA-6501) | IC50 Values, ACA-6501 (ACA-6501) | IC50 Values, ACA-6701 (ACA-6701) | also measured
CC(C)C[C@@H]1NC(=O)[C@H](CCCCN)NC(=O)CNC(=O)[C@@H](CC(C)C)NC(=O)[C@@H](C(C)C)NC(=O)CNC(=O)[C@H](CC(C)C)NC(=O)[C@@H](N)CSSC[C@@H](C(=O)O)NC1=O [C L G dV dL G K L C] (H-CLG[dV][dL]GKLC-OH; disulfide 1-9) | 5.9 | 50 µg/mL | – | – | –
CC(C)C[C@@H]1NC(=O)[C@@H](NC(=O)[C@@H]2CCCN2C(=O)CN)CSSC[C@@H](C(=O)N2CCC[C@H]2C(=O)NCC(=O)O)NC(=O)[C@H](CC(C)C)NC(=O)[C@H](CCCCN)NC(=O)CNC(=O)[C@H](CC(C)C)NC(=O)[C@H](C(C)C)NC(=O)CNC1=O [G P C L G V L G K L C P G] (H-GPCLGVLGKLCPG-OH; disulfide 3-11) | – | 180 µg/mL | – | – | –
CC(C)C[C@@H]1NC(=O)[C@H](CCCCN)NC(=O)CNC(=O)[C@H](CC(C)C)NC(=O)[C@H](C(C)C)NC(=O)CNC(=O)[C@H](CC(C)C)NC(=O)[C@@H](N)CSSC[C@@H](C(=O)O)NC1=O [LJP 690, CLGVLGKLC] (H-CLGVLGKLC-OH; disulfide 1-9) | 3.5 | – | 10.0 μg/0.1 mL | 4.0 μg/0.1 mL | –
CC(C)C[C@@H]1NC(=O)[C@H](CCCCN)NC(=O)CNC(=O)[C@H](CC(C)C)NC(=O)[C@H](C(C)C)NC(=O)CNC(=O)[C@H](CC(C)C)NC(=O)[C@@H](N)CSC[C@@H](C(=O)O)NC1=O [LJP 698] | – | – | 11.0 μg/0.1 mL | 5.0 μg/0.1 mL | –
CC(C)C[C@@H]1NC(=O)[C@H](CCCCN)NC(=O)CNC(=O)[C@H](CC(C)C)NC(=O)[C@H](C(C)C)NC(=O)CNC(=O)[C@H](CC(C)C)NC(=O)[C@@H](N)CCSC[C@@H](C(=O)O)NC1=O [LJP 699] (H-[Abu(4-yl)]LGVLGKLC-OH; thioether 1-9) | 1.6 | 46 µg/mL | 4.6 μg/0.1 mL | 3.0 μg/0.1 mL | –
CC(C)C[C@@H]1NC(=O)[C@H](CCCCN)NC(=O)CNC(=O)[C@H](CC(C)C)NC(=O)[C@H](C(C)C)NC(=O)CNC(=O)[C@H](CC(C)C)NC(=O)[C@@H](N)CSCC[C@@H](C(=O)O)NC1=O [LJP 702] (H-CLGVLGKL[Abu(4-yl)]-OH; thioether 1-9; N-terminus and C-terminus assumed) | – | 92 µg/mL | 9.2 μg/0.1 mL | 3.2 μg/0.1 mL | –
CC(C)C[C@@H]1NC(=O)[C@H](CCCCN)NC(=O)CNC(=O)[C@H](CC(C)C)NC(=O)[C@H](C(C)C)NC(=O)CNC(=O)[C@H](CC(C)C)NC(=O)[C@@H](N)CCSCC[C@@H](C(=O)O)NC1=O [LJP 703] (H-[hCys]LGVLGKL[Abu(4-yl)]-OH; thioether 1-9; N-terminus and C-terminus assumed) | – | 80 µg/mL | 8.0 μg/0.1 mL | 3.6 μg/0.1 mL | –
CC(C)C[C@@H]1NC(=O)[C@@H](NC(=O)[C@@H]2CCCN2)CSSC[C@@H](C(=O)N2CCC[C@H]2C(=O)NCC(=O)O)NC(=O)[C@H](CC(C)C)NC(=O)[C@H](CCCCN)NC(=O)CNC(=O)[C@H](CC(C)C)NC(=O)[C@H](C(C)C)NC(=O)CNC1=O [P C L G V L G K L C P G] (H-PCLGVLGKLCPG-OH; disulfide 2-10) | – | 420 µg/mL | – | – | –
CC(C)C[C@@H]1NC(=O)[C@@H](NC(=O)[C@H]2CCCN2)CSSC[C@@H](C(=O)O)NC(=O)[C@H](CC(C)C)NC(=O)[C@H](CCCCN)NC(=O)CNC(=O)[C@H](CC(C)C)NC(=O)[C@H](C(C)C)NC(=O)CNC1=O [dP C L G V L G K L C] (H-[dP]CLGVLGKLC-OH; disulfide 2-10) | – | 120 µg/mL | – | – | –
CC(C)C[C@@H]1NC(=O)[C@H](CCCCN)NC(=O)[C@H](C)NC(=O)[C@H](CC(C)C)NC(=O)[C@H](C(C)C)NC(=O)CNC(=O)[C@H](CC(C)C)NC(=O)[C@@H](N)CSSC[C@@H](C(=O)O)NC1=O [peptide 925, CLGVLAKLC] (H-CLGVLAKLC-OH; disulfide 1-9) | 1.8 | 40 µg/mL | – | – | –
AGP DGNIADPRC PG (DGNIADPRCPG) [6626/4C7] | – | – | – | – | Percent Inhibition of AffACA by Peptide Monomers, Ave. (ACA antibodies): 68%; Percent Inhibition of AffACA by Peptide Monomers, 6501 (ACA-6501): 39%; Percent Inhibition of AffACA by Peptide Monomers, 6644 (ACA-6644): 45%; Percent Inhibition of AffACA by Peptide Monomers, 7004 (ACA-7004): 99%; Percent Inhibition of AffACA by Peptide Monomers, 6701 (ACA-6701): 69%; Percent Inhibition of AffACA by Peptide Monomers, 6903 (ACA-6903): 77%; Percent Inhibition of AffACA by Peptide Monomers, 6638 (ACA-6638): 96%; Percent Inhibition of AffACA by Peptide Monomers, 7005 (ACA-7005): 54%; Percent Inhibition of AffACA by Peptide Monomers, 6626 (ACA-6626): 88%; Percent Inhibition of AffACA by Peptide Monomers, 6641 (ACA-6641): 45%
AGP LSDPGYVRNIFH PG (LSDPGYVRNIFHPG) [6701/3B1] | – | – | – | – | Percent Inhibition of AffACA by Peptide Monomers, Ave. (ACA antibodies): 52%; Percent Inhibition of AffACA by Peptide Monomers, 6501 (ACA-6501): 41%; Percent Inhibition of AffACA by Peptide Monomers, 6644 (ACA-6644): 37%; Percent Inhibition of AffACA by Peptide Monomers, 7004 (ACA-7004): 72%; Percent Inhibition of AffACA by Peptide Monomers, 6701 (ACA-6701): 96%; Percent Inhibition of AffACA by Peptide Monomers, 6903 (ACA-6903): 51%; Percent Inhibition of AffACA by Peptide Monomers, 6638 (ACA-6638): 65%; Percent Inhibition of AffACA by Peptide Monomers, 7005 (ACA-7005): 23%; Percent Inhibition of AffACA by Peptide Monomers, 6626 (ACA-6626): 43%; Percent Inhibition of AffACA by Peptide Monomers, 6641 (ACA-6641): 43%
